According to article PMC3616073, “Engineering Agatoxin, a Cystine-Knot Peptide from Spider Venom, as a Molecular Probe for In Vivo Tumor Imaging” (PLoS ONE, 2013):
Read-outs that look alike come from different tables or passages of the source. Where a SMILES comes first, the peptide text is derived from it. Bridges are numbered along the chain shown (N, C = ends).

Assays:
[1] = set-up: method as in PMID 20124048, PMID 19276378; details: cited from earlier work; for Stability in serum and blood: radiolabeled probes of earlier studies
[2] = biological target: T1, αvβ3 integrin on K562-αvβ3 cells (Homo sapiens, UniProt P05106+P06756); test: Competition binding assay on K562-αvβ3 cells (FLAG-AgRP 7A competitor, flow cytometry); details: competition with 0.5 nM FLAG-AgRP 7A, 5×10^4 K562-αvβ3 cells in IBB, 4 hr at 4 °C, anti-FLAG flow cytometry, mean of three experiments ± SD, read-out: IC50 (relative binding affinity to K562-αvβ3 cells)
T1 construct: expressed in transfected cells; host or cells: K562 leukemia cells (courtesy of S. Blystone)
Text: Competition binding assays were used to measure the relative affinities of the AgTx 7C variants and AgRP 7C to K562 leukemia cells transfected to express high levels of αvβ3 integrin [50]. […] FLAG-AgRP 7A contains an N-terminal FLAG epitope tag (DYKDDDDK), which allows detection of cell surface binding by flow cytometry using a fluorescently labeled anti-FLAG antibody.
Figure 3 Engineered AgTx 7C variants bind to K562-αvβ3 cells with similar IC50 values. Varying concentrations of AgRP 7C and AgTx 7C variants were incubated with FLAG-AgRP 7A and allowed to compete for binding to integrin receptors expressed on the surface of K562-αvβ3 cells. Representative competition binding curves are shown, and are plotted as knottin concentration versus the fraction of FLAG-AgRP 7A bound. IC50 values reported as mean of three experiments ± SD. TEXT PRINTED IN THE PICTURE: AgRP 7C: IC50 (nM): 2.2 ± 1.0 | AgTx 7C ΔR21: IC50 (nM): 2.3 ± 0.5 | AgTx 7C P22G R24I: IC50 (nM): 8.1 ± 1.6 | AgTx 7C ΔR21 P22G R24I: IC50 (nM): 5.1 ± 1.6 | AgTx 7C ΔR9: IC50 (nM): 2.5 ± 0.4
Competition binding assays were performed on K562 leukemia cells transfected to express high levels of αvβ3 integrins. Varying concentrations of AgRP 7C and AgTx variants were incubated with 5×10^4 K562-αvβ3 cells in IBB for 4 hr at 4 °C, along with a constant concentration (0.5 nM) of recombinantly expressed FLAG-AgRP 7A knottin as a competitor. FLAG-AgRP 7A binds with high affinity to αvβ3 integrin and contains an N-terminal epitope tag (DYKDDDDK), allowing cell surface binding to be detecting using an anti-FLAG antibody. Care was taken to allow adequate time for equilibrium binding and to avoid ligand depleting conditions. […] Cells were washed with BPBS and analyzed by flow cytometry on a FACSCalibur instrument (BD Biosciences), and data was quantified using FlowJo software (TreeStar). IC50 values were determined by nonlinear regression analysis using KaleidaGraph (Synergy Software). […]

[3] = biological target: T2, αvβ3 integrins expressed on U87MG glioblastoma cells (Homo sapiens, UniProt P05106+P06756); test: Competition binding assay on U87MG glioblastoma cells (FLAG-AgRP 7A competitor, flow cytometry); details: competition with 5 nM FLAG-AgRP 7A, 5×10^4 U87MG cells in IBB, 4 hr at 4 °C, mean of three experiments ± SD
T2 construct: U87MG glioblastoma cells, which express high levels of αvβ3 integrin receptors; host or cells: U87MG human glioblastoma cells
Text: For simplicity, we chose to move forward with AgTx 7C ΔR21 for in vivo molecular imaging studies. To visualize tumor targeting and tissue biodistribution, we conjugated the near-infrared dye Alexa Fluor 680 (AF680) to the N-terminal amino group of AgTx 7C ΔR21 (Fig. S3A). We also synthesized AF680-labeled versions of AgRP 7C and EETI 2.5F for comparison studies. AF680-labeled EETI RDG, which contains a scrambled integrin recognition sequence, [30], served as a non-binding control. AF680-labeled knottin peptides were purified by RP-HPLC and had the expected masses for the addition of one dye molecule (Fig. S3B, C). Competition binding assays were used to determine if AF680 conjugation affected integrin recognition. FLAG-AgRP 7A was used to compete for knottin binding to U87MG human glioblastoma cells (Fig. 4).
Figure 4 Unlabeled and AF680-labeled knottins bind U87MG cells with high affinity. […]
Competition binding assays were performed on K562 leukemia cells transfected to express high levels of αvβ3 integrins. […] Cells were washed with BPBS and analyzed by flow cytometry on a FACSCalibur instrument (BD Biosciences), and data was quantified using FlowJo software (TreeStar). IC50 values were determined by nonlinear regression analysis using KaleidaGraph (Synergy Software). […]

| Molecule | Stability in serum and blood [1] | IC50 [2] [nM] | further results |
| --- | --- | --- | --- |
| CC(C)C[C@@H]1NC(=O)[C@@H]2CSSC[C@@H]3NC(=O)[C@H]([C@@H](C)O)NC(=O)[C@H](C)NC(=O)[C@H](C)NC(=O)[C@@H]4CCCN4C(=O)[C@H](CC(=O)O)NC(=O)[C@H](CSSC[C@H](NC(=O)CN)C(=O)N[C@@H](C(C)C)C(=O)N[C@@H](CCCNC(=N)N)C(=O)N[C@@H](CC(C)C)C(=O)N[C@@H](Cc4c[nH]cn4)C(=O)N[C@@H](CCC(=O)O)C(=O)N[C@@H](CO)C(=O)N2)NC(=O)[C@H](CSSC[C@@H](C(=O)N[C@@H](CCCNC(=N)N)C(=O)O)NC(=O)[C@H](Cc2ccc(O)cc2)NC(=O)[C@@H]2CSSC[C@H](NC(=O)[C@H](Cc4ccc(O)cc4)NC3=O)C(=O)N[C@@H](Cc3ccc(O)cc3)C(=O)NCC(=O)N[C@@H](CCCNC(=N)N)C(=O)NCC(=O)N[C@@H](CC(=O)O)C(=O)N[C@@H](CC(N)=O)C(=O)N[C@@H](CC(=O)O)C(=O)N[C@@H](CC(C)C)C(=O)N[C@@H](CCCNC(=N)N)C(=O)N2)NC(=O)[C@@H]2CCCN2C(=O)[C@H](C(C)C)NC(=O)[C@H](CCC(N)=O)NC(=O)[C@H](CCC(N)=O)NC(=O)CNC1=O [AgRP 7C] (H-GCVRLHESCLGQQVPCCDPAATCYCYGRGDNDLRCYCR-OH; disulfide 2-17, 9-23, 16-37, 25-35) | remarkably stable in serum and blood | – | Metabolic breakdown in the liver, kidneys, and tumor ([1]; compared to EETI 2.5F): higher levels of metabolic breakdown |
| CC[C@H](C)[C@@H]1NC(=O)[C@@H](NC(=O)CN)CSSC[C@@H]2NC(=O)[C@@H]3CSSC[C@@H](C(=O)N[C@H](C(=O)O)[C@@H](C)O)NC(=O)[C@H](CCC(=O)O)NC(=O)[C@@H]4CSSC[C@H](NC(=O)[C@H]([C@@H](C)CC)NC(=O)[C@H](CSSC[C@H](NC(=O)[C@H](CCCNC(=N)N)NC(=O)CNC(=O)[C@H](Cc5ccc(O)cc5)NC(=O)[C@H](CC(=O)O)NC(=O)[C@H](CCC(=O)O)NC(=O)[C@H](C)NC1=O)C(=O)N[C@@H]([C@@H](C)O)C(=O)N[C@@H](Cc1c[nH]c5ccccc15)C(=O)NCC(=O)NCC(=O)N[C@@H]([C@@H](C)O)C(=O)N1CCC[C@H]1C(=O)N3)NC(=O)CNC(=O)[C@H](CCCNC(=N)N)NC(=O)CNC(=O)[C@H](CCCNC(=N)N)NC2=O)C(=O)N[C@@H](Cc1ccc(O)cc1)C(=O)NCC(=O)N[C@@H](CCCNC(=N)N)C(=O)NCC(=O)N[C@@H](CC(=O)O)C(=O)N[C@@H](CC(N)=O)C(=O)N[C@@H](CC(=O)O)C(=O)N[C@@H](CC(C)C)C(=O)N[C@@H](CCCNC(=N)N)C(=O)N4 [AgTx 7C P22G R24I] (H-GCIAEDYGRCTWGGTPCCRGRGCICYGRGDNDLRCECT-OH; disulfide 2-18, 10-23, 17-37, 25-35) | – | 8.1 ± 1.6 | – |
| CC[C@H](C)[C@@H]1NC(=O)[C@@H](NC(=O)CN)CSSC[C@@H]2NC(=O)[C@@H]3CSSC[C@@H](C(=O)N[C@H](C(=O)O)[C@@H](C)O)NC(=O)[C@H](CCC(=O)O)NC(=O)[C@@H]4CSSC[C@H](NC(=O)[C@H]([C@@H](C)CC)NC(=O)[C@H](CSSC[C@H](NC(=O)[C@H](CCCNC(=N)N)NC(=O)CNC(=O)[C@H](Cc5ccc(O)cc5)NC(=O)[C@H](CC(=O)O)NC(=O)[C@H](CCC(=O)O)NC(=O)[C@H](C)NC1=O)C(=O)N[C@@H]([C@@H](C)O)C(=O)N[C@@H](Cc1c[nH]c5ccccc15)C(=O)NCC(=O)NCC(=O)N[C@@H]([C@@H](C)O)C(=O)N1CCC[C@H]1C(=O)N3)NC(=O)CNC(=O)CNC(=O)[C@H](CCCNC(=N)N)NC2=O)C(=O)N[C@@H](Cc1ccc(O)cc1)C(=O)NCC(=O)N[C@@H](CCCNC(=N)N)C(=O)NCC(=O)N[C@@H](CC(=O)O)C(=O)N[C@@H](CC(N)=O)C(=O)N[C@@H](CC(=O)O)C(=O)N[C@@H](CC(C)C)C(=O)N[C@@H](CCCNC(=N)N)C(=O)N4 [AgTx 7C ΔR21 P22G R24I] (H-GCIAEDYGRCTWGGTPCCRGGCICYGRGDNDLRCECT-OH; disulfide 2-18, 10-22, 17-36, 24-34) | – | 5.1 ± 1.6 | – |
| CC[C@H](C)[C@@H]1NC(=O)[C@@H](NC(=O)CN)CSSC[C@@H]2NC(=O)[C@@H]3CSSC[C@@H](C(=O)N[C@H](C(=O)O)[C@@H](C)O)NC(=O)[C@H](CCC(=O)O)NC(=O)[C@@H]4CSSC[C@H](NC(=O)[C@H](CCCNC(=N)N)NC(=O)[C@H](CSSC[C@H](NC(=O)[C@H](CCCNC(=N)N)NC(=O)CNC(=O)[C@H](Cc5ccc(O)cc5)NC(=O)[C@H](CC(=O)O)NC(=O)[C@H](CCC(=O)O)NC(=O)[C@H](C)NC1=O)C(=O)N[C@@H]([C@@H](C)O)C(=O)N[C@@H](Cc1c[nH]c5ccccc15)C(=O)NCC(=O)NCC(=O)N[C@@H]([C@@H](C)O)C(=O)N1CCC[C@H]1C(=O)N3)NC(=O)[C@@H]1CCCN1C(=O)CNC(=O)[C@H](CCCNC(=N)N)NC2=O)C(=O)N[C@@H](Cc1ccc(O)cc1)C(=O)NCC(=O)N[C@@H](CCCNC(=N)N)C(=O)NCC(=O)N[C@@H](CC(=O)O)C(=O)N[C@@H](CC(N)=O)C(=O)N[C@@H](CC(=O)O)C(=O)N[C@@H](CC(C)C)C(=O)N[C@@H](CCCNC(=N)N)C(=O)N4 [AgTx 7C ΔR21] (H-GCIAEDYGRCTWGGTPCCRGPCRCYGRGDNDLRCECT-OH; disulfide 2-18, 10-22, 17-36, 24-34) | – | 2.3 ± 0.5 | IC50 ([3]; unlabeled knottin, read-out: IC50, Unlabeled): 10 ± 1 nM |
| CC(C)C[C@@H]1NC(=O)[C@@H]2CSSC[C@@H](C(=O)NCC(=O)O)NC(=O)[C@H](Cc3ccccc3)NC(=O)CNC(=O)[C@H](CC(N)=O)NC(=O)[C@@H]3CCCN3C(=O)CNC(=O)[C@@H]3CSSC[C@H](NC(=O)[C@H]([C@@H](C)O)NC(=O)[C@H](CC(C)C)NC(=O)[C@@H]4CCCN4C(=O)[C@@H]4CCCN4C(=O)[C@H](CC(N)=O)NC(=O)[C@H](CC(=O)O)NC(=O)CNC(=O)[C@H](CCCNC(=N)N)NC(=O)[C@@H]4CCCN4C(=O)[C@H](CCCNC(=N)N)NC(=O)[C@@H]4CCCN4C(=O)[C@@H](NC(=O)CN)CSSC[C@H](NC(=O)CNC(=O)[C@H](C)NC1=O)C(=O)N[C@@H](C(C)C)C(=O)N3)C(=O)N[C@@H](CO)C(=O)N[C@@H](CCC(N)=O)C(=O)N[C@@H](CC(=O)O)C(=O)N[C@@H](CO)C(=O)N[C@@H](CC(=O)O)C(=O)N2 [EETI 2.5F] (H-GCPRPRGDNPPLTCSQDSDCLAGCVCGPNGFCG-OH; disulfide 2-24, 14-26, 20-32) | remarkably stable in serum and blood | – | – |
| AF680-labeled EETI 2.5F: EETI 2.5F with one Alexa Fluor 680 dye at the N-terminus (CPRPRGDNPPLTCKQDSDCLAGCVCGPNGFCG; Alexa Fluor 680 on N-terminal amine; 3 disulfides) | – | – | IC50 ([3]; AF680-labeled knottin, read-out: IC50, AF680 labeled): 4 ± 0.2 nM |
